Experimental data taken from patent US12479940B2, “Amide compound, polymerizable composition, cured material, and method of manufacturing cured material” (ADEKA CORPORATION, priority 2019, dated 2025).

Description: As the polymerization initiator (the water-soluble polymerization initiator), N,N-bis(2-hydroxyethyl)butane-1-aminium=phenyl(2,4,6-trimethylbenzoyl)phosphinate represented by A3, 1-[4-(2-hydroxyethoxy)phenyl]-2-hydroxy-2-methyl-1-propan-1-one represented by A32, and N,N-bis(2-hydroxyethyl)butane-1-aminium=9-oxo-9H thioxanthene-4-carboxylate represented by A57 were used.

Row | SMILES | solubility in water
1 | Cc1cc(C)c(C(=O)P(=O)(O)c2ccccc2)c(C)c1 [A3, N,N-bis(2-hydroxyethyl)butane-1-aminium=phenyl(2,4,6-trimethylbenzoyl)phosphinate] | ≥ 1 mass %
2 | CC(C)(O)C(=O)c1ccc(OCCO)cc1 [A32, 1-[4-(2-hydroxyethoxy)phenyl]-2-hydroxy-2-methyl-1-propan-1-one] | ≥ 1 mass %
